Test [1] deals with human microvascular cells. In words: Inhibition of endothelial cell cord formation in vitro. Type of test: cell-based. To be noted: for minimal effective concentration: Homo sapiens, Endothelial cell, Table II, read-out: Minimum Effective Concentration, Cord Formation. From the text:
Endothelial cells have the capacity in vitro to form tubular aggregates resembling capillaries in various early stages of formation. This conversion occurs under relatively specific conditions, in which essential growth factors along with an effective substratum are provided. It has been shown that both the interaction of growth factors with the endothelial cell and its attachment to a substratum activate the NHE. The activation of this exchanger is believed to be required for subsequent morphologic transformation of the endothelial cell into a multicellular tubular structure.
To assess the effect of compounds on the cord-like structures formed by human microvascular cells when plated in the presence of VEGF (Vascular Endothelial Growth Factor) and basic fibroblast growth factor on a collagen matrix, a standard cord formation assay was used.

Another test has as its system chick embryo. The test is described as follows: Chick embryo diss. assay (Table II). The test is classed as in vivo. As to the method: (§1) Using the chick embryo vitelline capillaries assay, compounds were tested for their ability to induce capillary regression. Each compound was applied in 0.1 ml of 15% Ficol 400 and PBS onto the embryo, and vascular regression was assessed after 60 minutes.

For test [2], the system named is vitelline capillaries of 3- to 5-day chick embryo. The test is described as follows: Chick embryo vitelline capillary regression assay. The test is classed as in vivo. On the set-up: key to vascular reactivity: +: Vascular reactivity; 0: No vascular reactivity; +/-: Equivocal reactivity. To be noted: for vascular reactivity: 60 minutes. The procedure: as §1
The 3-day chick embryo consists of an embryonic disc from which numerous vessels emerge and return, forming a "figure 8"-shaped structure--the embryo in the center with vascular loops extending outward over both poles. […] Following a lag period of around 15 minutes, the constriction of continuity between capillary and secondary vessels, generally on the "venous" side, was observed. Continued pulsatile blood flow progressed, resulting in a "swelling" of the blind tube, followed by a pinching off of the remaining connection and formation of an enclosed vascular sac resembling a "blood island." This process progressed until only the largest vessels remained intact.

In a further test the test system is Xenopus tadpoles. The test is described as follows: Tadpole assay.
The subject of a further test is E. Coli. In words: Antibiotic activity, MIC. To be noted: Escherichia coli. The test is classed as cell-based.
The next test concerns C. albicans. In words: Antibiotic activity, MIC. To be noted: Candida albicans. The test is classed as cell-based.
In another test the test system is P. In words: Antibiotic activity, MIC. The test is classed as cell-based. To be noted: read-out: MIC Values.
For another test, the system named is S. aureus. The test is described as follows: Antibiotic activity, MIC. Type of test: cell-based. To be noted: Staphylococcus aureus.
Another test has as its system HM. In words: HM MTT assay (Table II). The test is classed as cell-based. To be noted: read-out: Minimum Effective Concentration, HM MTT assay.

≈ marks a conversion by molar mass, not a printed value. Entries after “also recorded” stand apart in the source; their conditions may differ. Where only a bound is given, the exact number is not on record here.

As usually defined, the MIC is the smallest concentration in the dilution series that meets the test's criterion for growth inhibition.

`CC(CCC(=O)O)[C@H]1CCC2C3C(CC[C@@]21C)[C@@]1(C)CC[C@H](NCCCNCCCCNCCCN)C[C@H]1C[C@H]3O` (stereo partly shown): the minimal effective concentration in test [1] was more than 10 µg/mL.
Turning to `CC(C)CCCC(C)[C@H]1CCC2C3C(CC[C@@]21C)[C@@]1(C)CC[C@H](NCCCNCCCCN)C[C@@H]1C[C@H]3O` (stereo partly shown) [drawing 87], in the test with chick embryo, the “Minimum Effective Concentration, chick embryo diss. assay” value (from here on “Minimum Effective Concentration”) was 1.10 µg.
Still for that read-out and setting: next, `CC(CCC(=O)O)[C@H]1CCC2C3C(CC[C@@]21C)[C@@]1(C)CC[C@H](NCCCNCCCCN)C[C@@H]1C[C@H]3O` (stereo partly shown): more than 10 µg; `COC(=O)CCC(C)[C@H]1CCC2C3C(CC[C@@]21C)[C@@]1(C)CC[C@H](NCCN)C[C@H]1C[C@H]3O` (stereo partly shown) [drawing 92]: more than 1 µg.
Take `CC(CCC(CO)(OS(=O)(=O)O)C(C)C)[C@H]1CCC2C3C(CC[C@@]21C)[C@@]1(C)CC[C@H](NCCCNCCCCN)C[C@@H]1C[C@H]3O` (stereo partly shown): the “Minimum Effective Concentration” value with chick embryo was more than 1 µg.
As for `CC(C)CCC[C@@H](C)[C@H]1CC[C@H]2[C@@H]3CC[C@H]4C[C@H](NCCCNCCCCNCCCN)CC[C@]4(C)[C@H]3CC[C@]12C`, the “Minimum Effective Concentration” value with chick embryo was more than 10 µg.
With `C[C@H](CCC(=O)O)[C@H]1CC[C@H]2[C@@H]3[C@H](O)C[C@@H]4C[C@@H](NCCCNCCCCNCCCN)CC[C@]4(C)[C@H]3CC[C@]12C` [Compound 413], the endothelial cord formation result in test [1] (0.1 μg/ml) was “-”. Moreover, the vascular reactivity in test [2] (1 μg applied) came to 0. Moreover, the “functional similarity in tadpole assay” value in the test on Xenopus tadpoles (Xenopus tadpole assay) is given as “effects like those produced by compound 1436”.
With `CC(C)CCC[C@@H](C)[C@H]1CC[C@H]2[C@@H]3CC[C@H]4C[C@@H](NCCCCN)CC[C@]4(C)[C@H]3CC[C@]12C`, the MIC with E. Coli was more than 256 µg/mL; in the test with C. albicans it was more than 256 µg/mL; in the test on P. it was more than 256 µg/mL; against S. aureus, 16 µg/mL (≈ 34.9 µM).
Consider `CC(C)C(O)CC[C@@H](C)[C@H]1CC[C@H]2[C@@H]3[C@H](O)C[C@H]4C[C@@H](NCCCNCCCCN(C)C)CC[C@]4(C)[C@H]3CC[C@]12C` (stereo partly shown), for which, in the test on P., the MIC was determined as 129 µg/mL (≈ 224 µM).
With `CC(CCC(=O)O)[C@H]1CCC2C3C(CC[C@@]21C)[C@@]1(C)CC[C@@H](NCCCNCCCCNCCCN)C[C@H]1C[C@H]3O` (stereo partly shown) [drawing 110], the minimal effective concentration in test [1] was more than 10 µg/mL; with HM it was 18.1 µg/mL.
For `CC(CCC(=O)O)[C@H]1CCC2C3C(CC[C@@]21C)[C@@]1(C)CC[C@@H](NCCCNCCCCN)CC1C[C@H]3O` (single isomer, unassigned), the “Minimum Effective Concentration” value with chick embryo stood at 0.01 µg.
With `COC(=O)CCC(C)[C@H]1CCC2C3C(CC[C@@]21C)[C@@]1(C)CC[C@H](NCCCNCCCCNCCCN)C[C@H]1C[C@H]3O` (stereo partly shown) [drawing 109], the minimal effective concentration in test [1] came to 10 µg/mL. The “Minimum Effective Concentration” value in the test on chick embryo is more than 1 µg.
In the case of `COC(=O)CCC(C)[C@H]1CCC2C3C[C@@H](O)[C@H]4C[C@H](NCCN)CC[C@]4(C)C3CC[C@@]21C` (stereo partly shown) [drawing 103], the “Minimum Effective Concentration” value in the test with chick embryo is more than 1 µg.
Regarding `CC(COS(=O)(=O)O)C(=O)CC[C@@H](C)[C@H]1CC[C@H]2[C@@H]3[C@H](O)C[C@H]4C[C@@H](NCCCNCCCCN)CC[C@]4(C)[C@H]3CC[C@]12C` (single isomer, unassigned) [Compound 1360], in test [2] (within 20 minutes), the “effect on chick embryo blood” value is “the blood circulating through the embryonic vessels exhibited a brighter red color”. Also, the “observed response in tadpole” value with Xenopus tadpoles (10 μg/ml, stage 59-60 Xenopus) was “Swelling and lysis of certain erythrocytes occurred; also recorded: Subsequent tissue breakdown occurred in areas of tail surrounding these nuclear plugs; also recorded: extensive vasocclusion occurred within 60 minutes throughout the tail”.
Turning to `C[C@H](CCC(=O)O)[C@H]1CC[C@H]2[C@@H]3[C@H](O)C[C@@H]4C[C@H](NCCN)CC[C@]4(C)[C@H]3CC[C@]12C` [Compound 414], the vascular reactivity in [2] (1 μg applied) is 0. For the same compound, in the test on Xenopus tadpoles (Xenopus tadpole assay), the “functional similarity in tadpole assay” value is “pharmacologic activity similar to Fraction 1” and the “potency in tadpole assay relative to Fraction 1” value is on record as “potencies comparable to that of Fraction 1”.
For `COC(=O)CCC(C)[C@H]1CCC2C3CC[C@@H]4C[C@H](NCCN)CC[C@]4(C)C3C[C@H](O)[C@@]21C` (stereo partly shown) [drawing 114], the minimal effective concentration in the test with HM turned out to be 2.4 µg/mL.
In the case of `C[C@H](CCC(=O)O)[C@H]1CC[C@H]2[C@@H]3[C@H](O)C[C@@H]4C[C@H](NCCCNCCCCNCCCN)CC[C@]4(C)[C@H]3CC[C@]12C` [Compound 412], the endothelial cord formation result in test [1] (10.0 μg/ml) is on record as “+”. In the test on Xenopus tadpoles (Xenopus tadpole assay), the “functional similarity in tadpole assay” value is given as “pharmacologic activity similar to that seen for FX 3”.
For the compound `CC(C)CCCC(C)[C@H]1CCC2C3C(CC[C@@]21C)[C@@]1(C)CC[C@@H](NCCCNCCCCN)C[C@@H]1C[C@H]3O` (stereo partly shown) [drawing 86], the “Minimum Effective Concentration” value in the test on chick embryo is more than 10 µg. The minimal effective concentration with HM was determined as 4 µg/mL.
For `CC(CCC(=O)O)[C@H]1CCC2C3CC[C@H]4C[C@@H](NCCCNCCCCN)CC[C@]4(C)C3CC[C@@]21C` (stereo partly shown) the same measures were 0.001 µg and 13.8 µg/mL.
As for `CC(CCCOS(=O)(=O)O)[C@H]1CCC2C3CC[C@H]4C[C@@H](NCCCNCCCCN)CC[C@]4(C)C3CC[C@@]21C` (stereo partly shown), the “Minimum Effective Concentration” value with chick embryo is more than 10 µg.
Same read-out and setting: in the case of `CC(CCC(=O)O)[C@H]1CCC2C3C[C@@H](O)[C@H]4C[C@@H](NCCN)CC[C@]4(C)C3CC[C@@]21C` (stereo partly shown) [drawing 105] it was 1 µg; in that of `COC(=O)CCC(C)[C@H]1CCC2C3CC[C@@H]4C[C@H](NCCCNCCCCNCCCN)CC[C@]4(C)C3C[C@H](O)[C@@]21C` (stereo partly shown) [drawing 106], 1 µg; in that of `CC(CCC(=O)O)[C@H]1CCC2C3CC[C@@H]4C[C@H](NCCCNCCCCNCCCN)CC[C@]4(C)C3C[C@H](O)[C@@]21C` (stereo partly shown) [drawing 107], more than 1 µg.
Take `COC(=O)CC[C@@H](C)[C@H]1CC[C@H]2[C@@H]3[C@H](O)C[C@@H]4C[C@@H](NCCCNCCCCNCCCN)CC[C@]4(C)[C@H]3CC[C@]12C` [Compound 411]: the vascular reactivity in test [2] (0.1 μg applied) was 0.
For the compound `COC(=O)CCC(C)[C@H]1CCC2C3CC[C@H]4C[C@@H](NCCCNCCCCNCCCN)CC[C@]4(C)C3CC[C@@]21C` (stereo partly shown) [drawing 99], the minimal effective concentration with HM turned out to be 5 µg/mL.
As to `COC(=O)CCC(C)[C@H]1CCC2C3C[C@@H](O)[C@H]4C[C@@H](NCCCNCCCCNCCCN)CC[C@]4(C)C3CC[C@@]21C` (stereo partly shown) [drawing 101], the “Minimum Effective Concentration” value with chick embryo is 1 µg.
On the same count and under the same terms, in the case of `CC(C)CCCC(C)[C@H]1CCC2C3C(CC[C@@]21C)[C@@]1(C)CC[C@H](N)C[C@@H]1C[C@H]3O` (stereo partly shown) [drawing 88] it was 1 µg.
As for `C[C@H](CCC(=O)O)[C@H]1CC[C@H]2[C@@H]3[C@H](O)C[C@H]4C[C@@H](NCCCNCCCCN)CC[C@]4(C)[C@H]3CC[C@]12C` [Compound 381], the vascular reactivity in [2] (1 μg applied) is given as 0.
Take `C[C@H](CCC(=O)O)[C@H]1CC[C@H]2[C@@H]3[C@H](O)C[C@@H]4C[C@@H](NCCN)CC[C@]4(C)[C@H]3CC[C@]12C` [Compound 415]: the endothelial cord formation result in test [1] (10.0 μg/ml) is “+/T”. In addition, the “activity in vitelline capillary regression assay” value in [2] (Table 5) is given as “especially active”.
As to `CC(C)[C@@H](CC[C@@H](C)[C@H]1CC[C@H]2[C@@H]3[C@H](O)C[C@H]4C[C@@H](NCCCNCCCCN)CC[C@]4(C)[C@H]3CC[C@]12C)OS(=O)(=O)O` [drawing 116], the minimal effective concentration in the test with HM was 7.8 µg/mL.
Turning to `COC(=O)CCC(C)[C@H]1CCC2C3C(CC[C@@]21C)[C@@]1(C)CCC(NCCCNCCCCNCCCN)C[C@@H]1C[C@H]3O` (stereo partly shown), the “Minimum Effective Concentration” value with chick embryo is more than 10 µg.
Turning to `COC(=O)CC[C@@H](C)[C@H]1CC[C@H]2[C@@H]3[C@H](O)C[C@@H]4C[C@@H](NCCN)CC[C@]4(C)[C@H]3CC[C@]12C` [Compound 409], the vascular reactivity in test [2] (1 μg applied) stood at 0. Besides, in the test on Xenopus tadpoles (Xenopus tadpole assay), the “functional similarity in tadpole assay” value is on record as “functionally similar to compound 1437”.
Consider `CC(CCC(=O)O)[C@H]1CCC2C3C(CC[C@@]21C)[C@@]1(C)CC[C@H](NCCN)C[C@H]1C[C@H]3O` (stereo partly shown) [drawing 113], for which, in [1], the minimal effective concentration was more than 10 µg/mL.
`CC(C)CCCC(C)[C@H]1CCC2C3CC[C@H]4C[C@H](NCCCN5CCCCN=C5N)CC[C@]4(C)C3CC[C@@]21C` (stereo partly shown): the “Minimum Effective Concentration” value in the test on chick embryo was more than 10 µg.
For the compound `COC(=O)CCC(C)[C@H]1CCC2C3C(CC[C@@]21C)[C@@]1(C)CC[C@@H](NCCN)C[C@H]1C[C@H]3O` (stereo partly shown) [drawing 93], the results for the minimal effective concentration (in [1]; in the test on HM) were 10 µg/mL and 2.6 µg/mL, respectively. Also, the “Minimum Effective Concentration” value with chick embryo turned out to be 0.01 µg.

The values above are taken from patent US5792635A, “Method of inhibiting the sodium/proton exchanger NHE3 and method of inhibiting growth by administering squalamine” (priority 1995, dated 1998).
